Assays:
salivary amylase [1] = biological target: T1, salivary amylase (Homo sapiens, UniProt P0DUB6); test: Immunoinhibition by polyclonal antiamylase antisera, salivary amylase; assay type: biochemical
T1 construct: purchased Sigma (St. Louis, Mo.)
T1 sequence (P0DUB6 16-511): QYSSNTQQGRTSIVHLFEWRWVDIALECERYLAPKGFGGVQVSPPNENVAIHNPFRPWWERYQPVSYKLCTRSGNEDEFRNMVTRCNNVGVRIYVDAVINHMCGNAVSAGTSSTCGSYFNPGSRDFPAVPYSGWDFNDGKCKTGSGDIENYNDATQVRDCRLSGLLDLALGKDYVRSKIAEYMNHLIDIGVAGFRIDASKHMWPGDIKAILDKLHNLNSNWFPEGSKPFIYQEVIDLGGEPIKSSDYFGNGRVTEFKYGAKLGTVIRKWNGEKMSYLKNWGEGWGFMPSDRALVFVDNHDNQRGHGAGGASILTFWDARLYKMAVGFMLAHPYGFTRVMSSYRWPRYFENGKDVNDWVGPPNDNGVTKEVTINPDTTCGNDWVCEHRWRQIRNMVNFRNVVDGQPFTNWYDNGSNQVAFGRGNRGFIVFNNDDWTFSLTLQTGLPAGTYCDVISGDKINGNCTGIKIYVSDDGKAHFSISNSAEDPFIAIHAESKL
Procedure: (§1) Amylase assays using oligosaccharide substrates were automated using a Cobas Fara analyzer (Roche, Basel, Switzerland). Unless indicated, assay temperature was 37° C., and absorbance changes were measured at 405 nm every minute over a 20 minute period. Assay buffer was either 52.5 mmol/L 4-(2-hydroxyethyl)-1-piperazine-ethanesulfonic acid (HEPES) buffer, pH 7.15, 87 mmol/L sodium chloride, 12.6 mmol/L magnesium chloride, 0.075 mmol/L calcium chloride (HEPES buffer) or 50 mmol/L MES, pH 6.0, 350 mmol/L sodium chloride, 6 mmol/L calcium acetate, 900 mmol/L KSCN (MES buffer). Amylases were diluted into assay buffer containing 1 mg/mL rabbit albumin. […] Unless indicated, final concentrations of MABs were 10 mg/L. Reaction blanks were determined by measuring the absorbance of substrate or enzyme alone at 405 nm. […] Differences between the test samples and reagent blanks were determined. Activity of stock solutions of amylase was based on activity measured with a Hitachi 917 analyzer using a Roche kit (Cat. No 1876473) (Indianapolis, Ind.) which uses EtG7pNP as the substrate. […]
(§2) The effects of two different polyclonal antiamylase immunoglobulin preparations on salivary and pancreatic amylase activity using mPEG-coupled and uncoupled substrates were tested. […] 100% amylase activity was determined in the absence of any antibody.

salivary amylase [2] = biological target: T1, salivary amylase; test: Immunoinhibition by MABs, salivary amylase, oligosaccharide substrates; assay type: biochemical; conditions: salivary isoenzyme, 20 U/I (G5, G7 substrates) or 600 U/I (G3 substrates), 100% = no MAB; for % activity with MAB 66C7 / % activity with MAB 88E8: MAB 10 mg/L
Procedure: (§3) Amylase assays using oligosaccharide substrates were automated using a Cobas Fara analyzer (Roche, Basel, Switzerland). Unless indicated, assay temperature was 37° C., and absorbance changes were measured at 405 nm every minute over a 20 minute period. Assay buffer was either 52.5 mmol/L 4-(2-hydroxyethyl)-1-piperazine-ethanesulfonic acid (HEPES) buffer, pH 7.15, 87 mmol/L sodium chloride, 12.6 mmol/L magnesium chloride, 0.075 mmol/L calcium chloride (HEPES buffer) or 50 mmol/L MES, pH 6.0, 350 mmol/L sodium chloride, 6 mmol/L calcium acetate, 900 mmol/L KSCN (MES buffer). Amylases were diluted into assay buffer containing 1 mg/mL rabbit albumin. Final reaction volumes were 200 μL and consisted of 3 solutions, R1, R2, and R3. […] Depending upon the assay, R2 and R3 contained either amylase or substrate. R1 and R2 solutions were mixed for 10 seconds prior to the addition of R3. For immunoinhibition studies, antibodies were preincubated with amylase (R2) for 30 minutes at room temperature prior to the addition of substrate (R3). Unless indicated, final concentrations of MABs were 10 mg/L. Reaction blanks were determined by measuring the absorbance of substrate or enzyme alone at 405 nm. When EtG7pNP or mPEG-EtG7pNP were used as substrates, α-glucosidase was included in the blank measurement. Differences between the test samples and reagent blanks were determined. Activity of stock solutions of amylase was based on activity measured with a Hitachi 917 analyzer using a Roche kit (Cat. No 1876473) (Indianapolis, Ind.) which uses EtG7pNP as the substrate. For Km determinations, 4 or 5 different substrate concentrations (0.05 mmol/L to 6 mmol/L) with salivary (4-20 U/L) or pancreatic (4-40 U/L) amylase were used.
When both MABs were used, MAB 88E8 concentrations were varied in the presence of 10 mg/L MAB 66C7. At an antibody concentration of 10 mg/L, MAB 88E8 inhibits 98% of salivary amylase activity in HEPES buffer and 34% of salivary amylase activity in MES buffer. MAB 66C7 increases salivary amylase activity in HEPES buffer and has no effect on salivary amylase activity in MES buffer. Using a mixture of MABs 88E8 and 66C7 at concentrations of […], >99% of salivary amylase activity is inhibited in HEPES buffer and 73% of salivary amylase activity is inhibited in MES buffer. When the pH of the MES buffer was increased from 6.0 to 6.5 and the concentration of KSCN was decreased from 900 mmol/L to 300 mmol/L, >97% of salivary amylase activity was inhibited by MAB 88E8.

pancreatic amylase [3] = biological target: T2, pancreatic amylase (Homo sapiens, UniProt P04746); test: Immunoinhibition by polyclonal antiamylase antisera, pancreatic amylase; assay type: biochemical
T2 construct: purchased Scripps Laboratories (San Diego, Calif.)
T2 sequence (P04746 16-511): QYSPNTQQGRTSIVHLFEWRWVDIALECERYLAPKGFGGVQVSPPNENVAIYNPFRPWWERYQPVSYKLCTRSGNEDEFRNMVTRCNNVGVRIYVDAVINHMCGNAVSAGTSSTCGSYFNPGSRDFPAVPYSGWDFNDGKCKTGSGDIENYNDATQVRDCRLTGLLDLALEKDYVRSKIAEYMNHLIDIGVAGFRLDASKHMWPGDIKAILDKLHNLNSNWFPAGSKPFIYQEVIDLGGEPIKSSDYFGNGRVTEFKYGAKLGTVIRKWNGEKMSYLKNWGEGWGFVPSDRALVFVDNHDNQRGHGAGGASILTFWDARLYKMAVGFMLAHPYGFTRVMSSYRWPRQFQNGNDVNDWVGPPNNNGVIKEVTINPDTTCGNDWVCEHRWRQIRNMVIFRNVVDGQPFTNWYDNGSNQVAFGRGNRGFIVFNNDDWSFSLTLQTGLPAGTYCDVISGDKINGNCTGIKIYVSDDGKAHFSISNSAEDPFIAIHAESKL
Procedure: as §1, §2

salivary amylase [4] = biological target: T1, salivary amylase; test: Extent of cleavage of substrates by excess salivary amylase; assay type: biochemical
Procedure: Substrates were diluted into HEPES buffer and absorbances were recorded between 250 nm and 500 nm. To determine the maximum amount of substrate that could be cleaved with amylase, substrates were incubated with 60 units/mL of salivary amylase. When EtG7pNP and mPEG-EtG7pNP were used, 4 units/mL of α-glucosidase were included in the incubation.
To determine the maximal amount of mPEG-coupled and uncoupled substrate that could be cleaved by amylase, substrates were incubated with excess salivary amylase and the amount of free chromophore released was determined by measuring absorptions between 250 nm and 500 nm during amylase digestion. […] Incubations were monitored until endpoints of reactions were approached. α-Glucosidase was included in the incubation when EtG7pNP and mPEG-EtG7pNP were used as substrates.

salivary amylase [5] = biological target: T1, salivary amylase; test: Amylase assay, Km determination, salivary amylase; assay type: biochemical
Procedure: as §3

pancreatic amylase [6] = biological target: T2, pancreatic amylase; test: Immunoinhibition by MABs, pancreatic amylase, oligosaccharide substrates; assay type: biochemical; conditions: pancreatic isoenzyme, 40 U/I (G5, G7 substrates) or 400 U/I (G3 substrates), 100% = no MAB; for % activity with MAB 66C7 / % activity with MAB 88E8: MAB 10 mg/L
Procedure: as §3

pancreatic amylase [7] = biological target: T2, pancreatic amylase; test: Amylase assay, Km determination, pancreatic amylase; assay type: biochemical
Procedure: as §3, with “Assay buffer was either 52.5 mmol/L 4-(2-hydroxyethyl)-1-piperazine-ethanesulfonic acid (HEPES) buffer, pH 7.15, 87 mmol/L sodium chloride, 12.6 mmol/L magnesium chloride, 0.075 mmol/L calcium chloride (HEPES buffer) or 50 mmol/L MES, pH 6.0, 350 mmol/L sodium chloride, 6 mmol/L calcium acetate, 900 mmol/L KSCN (MES buffer).” left out

[8] = system: pancreatic and salivary amylase; test: Lag phase of amylase reaction; assay type: biochemical, human; conditions: purified pancreatic and salivary amylase; Cobas Fara analyzer
Procedure: as §1, with “albumin. Final reaction volumes were 200 μL and consisted of 3 solutions, R1, R2, and R3. […] Depending upon the assay, R2 and R3 contained either amylase or substrate. R1 and R2 solutions were mixed for 10 seconds prior to the addition of R3.” for “albumin.”

[9] = 37° C., pH 6.5 in MES buffer containing 300 mM KSCN

SMILES	Fold lower concentration of antibody inhibiting cleavage than for G3ClpNP (salivary amylase [1])	% activity with MAB 88E8 + 66C7 (salivary amylase [2])	% activity with MAB 66C7 (salivary amylase [2])	% activity with MAB 88E8 (salivary amylase [2])	Fold lower concentration of antibody inhibiting cleavage than for G3ClpNP (pancreatic amylase [3])	Substrate cleaved by salivary amylase and α-glucosidase (salivary amylase [4]; digestion for 60 minutes)	Km (salivary amylase [5]; 37° C., HEPES buffer pH 7.15)	% activity with MAB 88E8 + 66C7 (pancreatic amylase [6])	% activity with MAB 66C7 (pancreatic amylase [6])	% activity with MAB 88E8 (pancreatic amylase [6])	Km (pancreatic amylase [7]; 37° C., HEPES buffer pH 7.15)	Lag phase, time to reach maximal rates [8]	CNP released by salivary amylase (salivary amylase [4]; excess salivary amylase, 40 minutes at room temperature)	Km (salivary amylase [5]; 25° C., HEPES buffer pH 7.15)	Km (salivary amylase [5]; [9])	Km (pancreatic amylase [7]; 25° C., HEPES buffer pH 7.15)	Km (pancreatic amylase [7]; [9])
CC1OC[C@H]2O[C@H](O[C@H]3[C@H](O)[C@@H](O)[C@@H](O[C@H]4[C@H](O)[C@@H](O)[C@@H](O[C@H]5[C@H](O)[C@@H](O)[C@@H](O[C@H]6[C@H](O)[C@@H](O)[C@@H](O[C@H]7[C@H](O)[C@@H](O)[C@@H](O[C@H]8[C@H](O)[C@@H](O)[C@@H](Oc9ccc([N+](=O)[O-])cc9)O[C@@H]8CO)O[C@@H]7CO)O[C@@H]6CO)O[C@@H]5CO)O[C@@H]4CO)O[C@@H]3CO)[C@H](O)[C@@H](O)[C@@H]2O1 (stereo partly drawn) [EtG7pNP, 4,6-O-ethylidene p-nitrophenyl-α-D-maltoheptaoside]	> 50 fold	2%	105%	6%	~3 fold	~90%	130 µM	96%	105%	96%	170 µM	–	–	–	–	–	–
O=[N+]([O-])c1ccc(O[C@H]2O[C@H](CO)[C@@H](O[C@H]3O[C@H](CO)[C@@H](O[C@H]4O[C@H](CO)[C@@H](O)[C@H](O)[C@H]4O)[C@H](O)[C@H]3O)[C@H](O)[C@H]2O)c(Cl)c1 [Substrate G3ClpNP, 2-chloro-p-nitrophenol-α-D-maltotrioside]	–	1%	104%	3%	–	–	6900 µM	103%	117%	103%	2200 µM	little or no lag phase	~90%	4600 µM	2000 µM	1300 µM	610 µM

Reference: US20030186345A1, “Macromolecular enzyme substrates” (priority 2003, published 2003)
